Data taken from the NIST ThermoML archive (doi:10.1016/j.jct.2015.10.016).
Numbers after ± are expanded uncertainties.

Tests used:
[1] = Molar enthalpy of transition or fusion; conditions: Crystal; DSC
[2] = Crystal; DTA

## O=C(NC[C@H]1CN(c2ccc(N3CCOCC3=O)cc2)C(=O)O1)c1ccc(Cl)s1 [Rivaroxaban]
[1]
  Molar enthalpy of transition or fusion: 11.2 ± 0.502 kcal/mol
[2]
  Normal melting temperature: 235.40 ± 1.1 °C
